This is an account of results in paper PMC6812009, “Covalent Aurora A regulation by the metabolic integrator coenzyme A” (Redox Biology, 2019).

One may read the stoichiometry N as the number of molecules, sites or subunits per partner or assembly.

Assay [1] deals with FLAG-tagged Aurora A in HEK293/Pank1β cells. Kind of assay: Aurora A Thr 288 phosphorylation and dimerization in cells treated with oxidising agents (immunoblot). It counts as cell-based, human. Conditions: 30 min treatment; for Formation of Aurora A dimers in cells: non-reducing conditions; for Aurora A phosphorylation at Thr 288 in cells: samples separated in the presence of DTT. A general note: Immunoblotting shows a protein as a band on a membrane.

The subject of a further assay is mouse oocytes. Kind of assay: Microinjection of mouse oocytes, spindle formation and chromosome alignment. The format is cell-based. Conditions: injected with 3 mM compound, 17 h after GV release. How it is done:
Mouse oocytes arrested at the GV stage were injected with different concentrations of CoA (0.15–5 mM). Since the commercial preparation of CoA used for microinjection contained 3 mol of lithium ions per mole of CoA, control oocytes were injected with an equivalent amount of LiCl. In a separate study, oocytes were injected with 3 mM CoA, ADP, AMP, 3′-5′-ADP and pantetheine. To examine the effect of injected compounds on spindle formation, oocytes were fixed 17 h after GV release and stained for alpha-tubulin (green) and DNA (blue).

The target in assay [2] is T1, FLAG-tagged WT Aurora A (human), O14965.
T1 chain: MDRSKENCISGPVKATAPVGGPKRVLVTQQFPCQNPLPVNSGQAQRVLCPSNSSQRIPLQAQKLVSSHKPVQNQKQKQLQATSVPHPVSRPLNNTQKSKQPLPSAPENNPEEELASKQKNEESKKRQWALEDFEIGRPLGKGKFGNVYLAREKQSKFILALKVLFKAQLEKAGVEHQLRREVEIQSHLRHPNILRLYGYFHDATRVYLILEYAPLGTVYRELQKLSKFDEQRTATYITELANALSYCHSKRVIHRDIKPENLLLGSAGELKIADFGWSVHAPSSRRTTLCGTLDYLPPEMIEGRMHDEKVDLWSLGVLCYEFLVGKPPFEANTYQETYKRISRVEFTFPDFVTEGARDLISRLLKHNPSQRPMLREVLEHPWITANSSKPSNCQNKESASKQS
Kind of assay: non-reducing SDS-PAGE and immunoblot of an anti-FLAG immunoprecipitate; FLAG-Aurora A immunoprecipitated from HEK293/Pank1β cells treated 30 min with oxidising agents (250 μM H2O2, 500 μM diamide, 50 μM menadione, 10 μM phenylarsine oxide, 1 μM rotenone); SDS-PAGE under reducing and non-reducing conditions; blots with anti-FLAG and anti-pT288; dimers seen under non-reducing conditions. Conditions: remark: other sources report otherwise.

In assay [3] the target is T2, purified Aurora A (human), O14965.
T2 chain: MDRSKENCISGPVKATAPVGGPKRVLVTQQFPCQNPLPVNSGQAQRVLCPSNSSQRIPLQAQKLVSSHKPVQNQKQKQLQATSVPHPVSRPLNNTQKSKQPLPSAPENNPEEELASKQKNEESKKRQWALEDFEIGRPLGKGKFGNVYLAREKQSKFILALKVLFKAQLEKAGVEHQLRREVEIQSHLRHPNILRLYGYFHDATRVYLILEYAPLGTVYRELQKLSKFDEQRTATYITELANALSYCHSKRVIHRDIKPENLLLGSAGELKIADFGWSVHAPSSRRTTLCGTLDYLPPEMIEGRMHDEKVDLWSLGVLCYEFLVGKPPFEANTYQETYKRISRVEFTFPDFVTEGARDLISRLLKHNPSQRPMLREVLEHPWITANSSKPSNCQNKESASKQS
Kind of assay: non-reducing SDS-PAGE; purified Aurora A briefly exposed to peroxide; reducing compared with non-reducing SDS-PAGE; dimer sensitive to DTT. To be noted: remark: other sources report otherwise.

In the case of `OO` [hydrogen peroxide], in assay [1], the “Formation of Aurora A dimers in cells” value was “clearly observed” and the “Aurora A phosphorylation at Thr 288 in cells” value is recorded as “promoted an increase”. `CC1=CC(=O)c2ccccc2C1=O` [menadione]: in assay [1], the “Formation of Aurora A dimers in cells” value is listed as “clearly observed” and the “Aurora A phosphorylation at Thr 288 in cells” value is “promoted an increase”. `CC(C)(CO)[C@@H](O)C(=O)NCCC(=O)NCCS` [pantetheine]: in the assay on mouse oocytes, the “Disruption of bipolar spindle formation and chromosome alignment” value is “not”.

B1: FLAG-tagged WT Aurora A, O14965 1-403 (enzyme)
chain: MDRSKENCISGPVKATAPVGGPKRVLVTQQFPCQNPLPVNSGQAQRVLCPSNSSQRIPLQAQKLVSSHKPVQNQKQKQLQATSVPHPVSRPLNNTQKSKQPLPSAPENNPEEELASKQKNEESKKRQWALEDFEIGRPLGKGKFGNVYLAREKQSKFILALKVLFKAQLEKAGVEHQLRREVEIQSHLRHPNILRLYGYFHDATRVYLILEYAPLGTVYRELQKLSKFDEQRTATYITELANALSYCHSKRVIHRDIKPENLLLGSAGELKIADFGWSVHAPSSRRTTLCGTLDYLPPEMIEGRMHDEKVDLWSLGVLCYEFLVGKPPFEANTYQETYKRISRVEFTFPDFVTEGARDLISRLLKHNPSQRPMLREVLEHPWITANSSKPSNCQNKESASKQS
modifications: here or on the partner: phosphothreonine at 288 (detected with anti-pT288 antibody after oxidising agents); phosphothreonine at 288 (detected with anti-pT288 antibody after oxidising agents)
Consider B1, for which, in assay [2], the stoichiometry N was 2.

B2: purified Aurora A, O14965 1-403 (enzyme)
chain: MDRSKENCISGPVKATAPVGGPKRVLVTQQFPCQNPLPVNSGQAQRVLCPSNSSQRIPLQAQKLVSSHKPVQNQKQKQLQATSVPHPVSRPLNNTQKSKQPLPSAPENNPEEELASKQKNEESKKRQWALEDFEIGRPLGKGKFGNVYLAREKQSKFILALKVLFKAQLEKAGVEHQLRREVEIQSHLRHPNILRLYGYFHDATRVYLILEYAPLGTVYRELQKLSKFDEQRTATYITELANALSYCHSKRVIHRDIKPENLLLGSAGELKIADFGWSVHAPSSRRTTLCGTLDYLPPEMIEGRMHDEKVDLWSLGVLCYEFLVGKPPFEANTYQETYKRISRVEFTFPDFVTEGARDLISRLLKHNPSQRPMLREVLEHPWITANSSKPSNCQNKESASKQS
With B2, the stoichiometry N in assay [3] stood at 2.
